# Patent publication US5486516A, “Furopyrimidine derivatives” (DowElanco, priority 1993, dated 1996)
# Key:
# [1] = system: Pyricularia oryzae (rice blast); test: whole plant or invertebrate; assay type: in vivo; conditions: foliar, read-out: RICE BLAST control rating
# [2] = system: Southern corn rootworm (Diabrotica undecimpuctata howardi Barber); test: Mite/insect screen, corn rootworm; assay type: in vivo; conditions: Diabrotica, soil, read-out: CRW results (percent mortality); for mortality at 12 ppm: CRW rate 12.00 ppm; for mortality at 24 ppm: CRW rate 24.00 ppm
# Method: (§1) The compounds of Examples were tested for miticidal and insecticidal activity in the following mite/insect screen.
# (§2) Each test compound was formulated by dissolving the compound in acetone/alcohol (50:50) mixture containing 23 g of "TOXIMUL R" (sulfonate/nonionic emulsifier blend) and 13 g of "TOXIMUL S" (sulfonate/nonionic emulsifier blend) per liter. These mixtures were then diluted with water to give the indicated concentrations.
# Activity on Southern corn rootworm (Diabrotica undecimpuctata howardi Barber) was evaluated by adding two ml of tap water, a presoaked corn seed, and 15 g of dry sandy soil to a one ounce plastic container. The soil was treated with 1 mL of test solution containing a predetermined concentration of test compound. After six to 12 hours of drying, five 2-3 instar corn rootworm larvae were added to the individual cups, which were then capped and held at 23° C.
# (§3) After standard exposure periods, percent mortality and phytotoxicity were evaluated. […] The following abbreviations are used in Table 3:
# CRW refers to corn rootworm
# [3] = system: southern armyworm (Spodopetra eridania Cramer); test: Mite/insect screen, Southern armyworm; assay type: in vivo; conditions: Spodoptera eridania, sprayed leaves, read-out: SAW results (percent mortality); for mortality at 200 ppm: rate 200 ppm; for mortality at 400 ppm: rate 400 ppm
# Method: as §1, §2
# (§4) Twospotted spider mites (Tetranychus urticae Koch) and melon aphids (Aphis gossvpii Glover) were introduced on squash cotyledons and allowed to establish on both leaf surfaces. Other plants in the same treatment pot were left uninfested. The leaves were then sprayed with 5 ml of test solution using a DeVilbiss atomizing sprayer at 10 psi. Both surfaces of the leaves were covered until runoff, and then allowed to dry for one hour. Two uninfested leaves were then excised and placed into a Petri dish containing larval southern armyworm (Spodopetra eridania Cramer).
# as §3
# SAW refers to Southern armyworm
# [4] = system: Twospotted spider mites (Tetranychus urticae Koch); test: Mite/insect screen, twospotted spider mites; assay type: in vivo; conditions: Tetranychus urticae, sprayed leaves, read-out: SM results (percent mortality); for mortality at 200 ppm: rate 200 ppm; for mortality at 400 ppm: rate 400 ppm
# Method: as §1, §2, §4, §3
# SM refers to twospotted spider mites
# [5] = system: melon aphids (Aphis gossvpii Glover); test: Mite/insect screen, melon aphids; assay type: in vivo; conditions: Aphis, sprayed leaves, read-out: MA results (percent mortality); for mortality at 200 ppm: rate 200 ppm; for mortality at 400 ppm: rate 400 ppm
# Method: as §1, §2, §4, §3
# MA refers to melon aphids.
# [6] = system: Puccinia recondita tritici (leaf rust); test: Plant pathology screen (Test 1), leaf rust on wheat; conditions: in Triticum aestivum, foliar, read-out: LEAF RUST control rating
# [7] = system: Pseudoperonospora cubensis (downy mildew); test: Plant pathology screen (Test 1), downy mildew on squash; conditions: foliar, read-out: DOWN MDEW control rating
# [8] = system: Erysiphe graminis tritici (powdery mildew); test: Plant pathology screen (Test 1), powdery mildew on wheat; conditions: Blumeria graminis, in Triticum aestivum, foliar, read-out: POWD MDEW control rating
# [9] = system: Botrytis cinerea (gray mold); test: Plant pathology screen (Test 1), gray mold on grape berries; conditions: read-out: GRAY MOLD control rating
# Method: This screen was used to evaluate the efficacy of the present compounds against a variety of different organisms that cause plant diseases.
# The test compounds were formulated for application by dissolving 50 mg of the compound into 1.25 ml of solvent. The solvent was prepared by mixing 50 ml of "Tween 20" (polyoxyethylene (20) sorbitan monolaurate emulsifier) with 475 ml of acetone and 475 ml of ethanol. The solvent/compound solution was diluted to 125 ml with deionized water. The resulting formulation contains 400 ppm test chemical. Lower concentrations were obtained by serial dilution with the solvent-surfactant mixture.
# The formulated test compounds were applied by foliar spray. The following plant pathogens and their corresponding plants were employed.
# The formulated technical compounds were sprayed on all foliar surfaces of the host plants (or cut berry) to past run-off. Single pots of each host plant were placed on raised, revolving pedestals in a fume hood. Test solutions were sprayed on all foliar surfaces. All treatments were allowed to dry and the plants were inoculated with the appropriate pathogens within 2-4 hours.
# The effectiveness of test compounds in controlling disease was rated using the following scale.
SMILES,pest or weed control at 400 µg/mL [1],mortality at 12 ppm [2],mortality at 24 ppm [2],mortality at 200 ppm [3],mortality at 400 ppm [3],mortality at 200 ppm [4],mortality at 400 ppm [4],mortality at 200 ppm [5],mortality at 400 ppm [5],pest or weed control at 400 µg/mL [6],pest or weed control at 400 µg/mL [7],pest or weed control at 400 µg/mL [8],pest or weed control at 400 µg/mL [9]
"Cc1oc2ncnc(OCCN3C[C@@H](C)O[C@H](C)C3)c2c1C (relative stereo) [Example 58, Trans-5,6-dimethyl-4-[2-(2,6-dimethyl-4-morpholinyl)ethoxy]furo[2,3-d]pyrimidine]",0 to 19%,0%,0%,0%,0%,0%,0%,0%,0%,20 to 89%,20 to 89%,0 to 19%,0 to 19%
"COc1ccc(CCNc2ncnc3oc(C)c(C)c23)cc1 [Example 1, N-[2-(4-methoxyphenyl)ethyl]-5,6-dimethylfuro[2,3-d]pyrimidin-4-amine]",90 to 100%,0%,100%,0%,0%,0%,0%,80%,0%,20 to 89%,20 to 89%,0 to 19%,0 to 19%
"COc1ccc(CCNc2ncnc3occ(C)c23)cc1 [Example 2, 5-methyl-N-[2-(4-methoxyphenyl)ethyl]furo[2,3-d]pyrimidin-4-amine]",90 to 100%,0%,0%,0%,0%,0%,0%,0%,80%,90 to 100%,90 to 100%,20 to 89%,0 to 19%
"CCOc1ccc(CCNc2ncnc3oc(C)c(C)c23)cc1 [Example 3, 5,6-dimethyl-N-[2-(4-ethoxyphenyl)ethyl]furo[2,3-d]pyrimidin-4-amine]",20 to 89%,0%,0%,30%,0%,0%,0%,0%,0%,20 to 89%,20 to 89%,0 to 19%,0 to 19%
"COc1ccc(CCNc2ncnc3oc(C)cc23)cc1 [Example 4, N-(2-(4-methoxyphenyl)ethyl]-6-methylfuro(2,3-d]pyrimidin-4-amine]",20 to 89%,–,0%,–,0%,–,0%,–,0%,90 to 100%,0 to 19%,0 to 19%,0 to 19%
"Cc1oc2ncnc(Oc3ccc(OC(F)(F)F)cc3)c2c1C [Example 32, 5,6-dimethyl-4-[4-(trifluoromethoxy)phenoxy]furo[2,3-d]pyrimidine]",0 to 19%,0%,0%,0%,0%,0%,0%,0%,0%,0 to 19%,0 to 19%,0 to 19%,–
"COc1cccc(CCNc2ncnc3occ(C)c23)c1 [Example 33, 5-methyl-N-[2-(3-methoxyphenyl)ethyl]furo[2,3-d]pyrimidin-4-amine]",20 to 89%,0%,0%,0%,0%,80%,0%,40%,0%,90 to 100%,90 to 100%,90 to 100%,–
"Fc1ccc(Oc2ncnc3oc4c(c23)CCCC4)cc1 [Example 34, 4-(4-fluorophenyloxy)-5,6,7,8-tetrahydrobenzofuro[2,3-d]pyrimidine]",0 to 19%,0%,0%,0%,0%,0%,0%,0%,0%,20 to 89%,0 to 19%,0 to 19%,–
"COc1ccccc1CCNc1ncnc2occ(C)c12 [Example 35, 5-methyl-N-[2,(2-methoxyphenyl)ethyl]furo[2,3-d]pyrimidin-4-amine]",0 to 19%,0%,0%,0%,0%,0%,0%,0%,30%,90 to 100%,20 to 89%,0 to 19%,–
"Cc1oc2ncnc(Oc3ccc(C#N)cc3)c2c1C [Example 36, 4-[(5,6-dimethylfuro[2,3-d]pyrimidin-4-yl)oxy]benzonitrile]",0 to 19%,0%,0%,0%,0%,0%,0%,0%,0%,0 to 19%,0 to 19%,0 to 19%,–
"Cc1oc2ncnc(Oc3ccccc3C#N)c2c1C [Example 37, 2-[(5,6-dimethylfuro[2,3-d]pyrimidin-4-yl)oxy]benzonitrile]",0 to 19%,0%,0%,0%,0%,90%,0%,0%,0%,0 to 19%,20 to 89%,0 to 19%,–
Cc1oc2ncnc(OCCc3ccc(OCC(F)(F)F)cc3)c2c1C [Example 78],–,0%,0%,0%,100%,20%,0%,90%,100%,–,–,–,–
"COc1ccc(CCn2cnc3oc(C)c(C)c3c2=N)cc1 [Example 80, 3-[2-(4-methoxyphenyl)ethyl]-5,6-dimethylfuro[2,3-d]pyrimidin-4(3H)-imine]",0 to 19%,0%,0%,0%,0%,0%,0%,0%,0%,0 to 19%,–,0 to 19%,0 to 19%
